Data as given in ChEMBL document CHEMBL1649440, “Impact of sarA on antibiotic susceptibility of Staphylococcus aureus in a catheter-associated in vitro model of biofilm formation” (2009).
In brackets after ≈: the same amount, converted by molar mass.

Legend:
Staphylococcus aureus [1] = test: Antimicrobial activity against Staphylococcus aureus isolate UAMS-1 by Etest method; assay type: functional
Staphylococcus aureus [2] = test: Antimicrobial activity against Staphylococcus aureus isolate UAMS-929 harboring sarA gene mutant by Etest method; assay type: functional

SMILES | MIC (Staphylococcus aureus [1]) [µg/mL] | MIC (Staphylococcus aureus [2]) [µg/mL]
CCCCCCCCCC(=O)N[C@@H](Cc1c[nH]c2ccccc12)C(=O)N[C@H](CC(N)=O)C(=O)N[C@@H](CC(=O)O)C(=O)N[C@@H]1C(=O)NCC(=O)N[C@@H](CCCN)C(=O)N[C@@H](CC(=O)O)C(=O)N[C@H](C)C(=O)N[C@@H](CC(=O)O)C(=O)NCC(=O)N[C@H](CO)C(=O)N[C@@H]([C@H](C)CC(=O)O)C(=O)N[C@@H](CC(=O)c2ccccc2N)C(=O)O[C@@H]1C | 0.75 (≈ 0.463 µM) | 0.75 (≈ 0.463 µM)
CC(=O)NC[C@H]1CN(c2ccc(N3CCOCC3)c(F)c2)C(=O)O1 [LINEZOLID] | 1 (≈ 2.96 µM) | 1 (≈ 2.96 µM)
CN[C@H](CC(C)C)C(=O)N[C@H]1C(=O)N[C@@H](CC(N)=O)C(=O)N[C@H]2C(=O)N[C@H]3C(=O)N[C@H](C(=O)N[C@H](C(=O)O)c4cc(O)cc(O)c4-c4cc3ccc4O)[C@H](O)c3ccc(c(Cl)c3)Oc3cc2cc(c3O[C@@H]2O[C@H](CO)[C@@H](O)[C@H](O)[C@H]2O[C@H]2C[C@](C)(N)[C@H](O)[C@H](C)O2)Oc2ccc(cc2Cl)[C@H]1O [VANCOMYCIN] | 1.5 (≈ 1.04 µM) | 1.5 (≈ 1.04 µM)
